Earlier results, collected in patent publication US20100221330A1, “BUOYANT FORMULATIONS OF BETAINE” (priority 2003, published 2010).

Conditions: human subjects, betaine supplementation

C[N+](C)(C)CC(=O)O [betaine]
Effect on blood pressure: reduces the blood pressure, especially the diastolic pressure
